Entries after “also recorded” stand apart in the source; their conditions may differ.
Key:
[1] = tested on: spontaneous fibrosarcomas; assay: Spontaneous fibrosarcomas in FVB/N mice; assay type: in vivo; conditions: treatment for 2 weeks
Excerpt: (§1) As shown, MA killed a wide variety of human tumor cells in vitro and in vivo killed xenotransplanted human tumors in immune deficient mice. We wanted to be certain that the in vivo results would not be limited to immune deficient mice. […] Therefore, we tested the effects of MA on: • spontaneous fibrosarcomas which developed in three older FVB/N mice; and • spontaneous breast carcinomas which developed in three older Sprague-Dawley rats.
The tumors were recognized and treated after different stages of development. Samples of the tumor cells were grown in short-term culture and when treated with MA underwent rapid apoptosis.

[2] = tested on: spontaneous breast carcinomas; assay: Spontaneous breast carcinomas in Sprague-Dawley rats; assay type: in vivo; conditions: 2 weeks of therapy
Excerpt: as §1
Similar results were obtained with the spontaneous mammary carcinomas of rats.

Acutely bled rats = assay type: in vivo, Sprague-Dawley rats; conditions: i.p. 24 and 48 hrs after 35-40% blood loss
Excerpt: To delineate the effects of MA on hematopoiesis in the absence of any external bone marrow suppression, blood (35-40% of total blood volume) was removed from five Sprague-Dawley rats by intracardiac puncture. […] Each panel illustrates the mean values for the three animals treated with MAS1. Thus, MA and related derivatives have potent pro-hematopoietic effects.

B16 melanoma = assay: Pro-apoptotic effect on cultured B16 melanoma cells; assay type: cell-based, mouse; conditions: same dose range as cultured human tumor cells
Protocol: (§2) B16 melanoma and Lewis lung (LL) carcinoma cells were first shown to be susceptible to the pro-apoptotic effects of MA (FIG. 6, Panels C and D) at the same dose range used with cultured human tumor cells. The tumor cells grown in standard culture conditions were used to generate metastatic cancers in pathogen-free 6-8 week old C57/BL mice (Charles River). In one set of experiments, the animals were treated with MAS1 or MAS2 at two doses, 0.1 ug or 1.0 ug either in a pre-treatment protocol (two subcutaneous inoculations 24 and 48 hrs before transplanting the tumor cells).

[3] = tested on: HIV-1 transgene expression; assay: HIV-1 transgenic rats; assay type: in vivo
Excerpt: Because of the extraordinary effects of MA in the mouse modes, we were concerned that the results might be peculiar to the model. Consequently, an HIV-1 transgenic rat model was developed. An additional advantage of the rat model is the larger size of the animals, enabling direct inoculation of MA into the developing pups rather than therapy being indirect (the lactating mother) and limited to the lactation phase. Thus, the transgenic rats can be followed and treated much longer.
Like the transgenic mice, the transgenic rats contain HIV-1 provirus PNNL 4-3, again deleted in gag/pol, and also develop hyperkeratosis. Additionally, they develop tissue fibrosis, inflammatory changes, and some histopathology more similar to human AIDS than in the mouse model, but unlike the HIV-1 transgenic mice the effect is usually not lethal. The changes correlate with expression of HIV-1 proteins. The transgenic rats are more fully described in copending U.S. patent application Ser. No. 09/058,113, by Bryant et al., filed Apr. 9, 1998, entitled “HIV Transgenic Animals and Uses Therefor,” the entire disclosure of which is incorporated herein by reference.
Inoculation (subcutaneous) of a 250-300 gm mother with 300 pmoles of MA for 10 days began after birth of the pups. […]

SIVMAC 251 = assay: SIV infection of rhesus macaque PBMCs (p27); assay type: cell-based
Protocol: One hour later the various polypeptides were added once.

[4] = tested on: human bone marrow stem cells; assay: Engraftment of ex vivo expanded hematopoietic progenitor cells in SCID mice
Excerpt: (§3) The inventors also investigated the effect of MA on engraftment of human bone marrow stem cells [CD34^+, CD38″ cells, long term cultures after 4 mos, and stromal free cultures] ex vivo expanded hematopoietic progenitor cells in Rats irradiated [Sprague DAwley, 450 Rad] and immunodeficient mice [SCID or BNX-XID mice].
(§4) Measurement of short-term hematopoietic reconstitution kinetics and long term repopulating ability. Just prior to implantation, SCID, BNX-XID-immunodeficient mice and Sprague Dawley rats were exposed to 450 rad total body γ-irradiation. […] But the SCID and BNX-XID immunodeficient mice were repopulated by the cultured, treated human cells.

[5] = tested on: primary human tumor cells; assay: Short-term cultured primary human tumor cells, growth and apoptosis; assay type: cell-based; conditions: 200 ng/ml; 3 days culture; 10% serum
Excerpt: Because cell lines might be more susceptible to growth inhibition and apoptosis, the effects of MA on short-term cultured human tumor cells were investigated. The cells were obtained from biopsied specimens and immediately cultured (primary cultures). The results were similar to the results with tumor cell lines. […] FIG. 3, Panels A and B are representative results with primary breast and prostate carcinomas respectively. These pro-apoptotic effects of MA on human tumor cells were with 10% serum rather than the lower concentrations sometimes used to make cells more susceptible to apoptosis.
More extensive studies of primary human tumor cells were carried out utilizing confocal microscopy.
With the exception of the kidney carcinoma, which was a biopsy sample direct from the tumor, the samples were from pleural effusions which developed after metastasis to the lung. The breast, prostate, and colon carcinomas were freshly obtained and immediately cultured, whereas the lung and kidney carcinomas went through 22 and 18 passes respectively before they were used in these studies. All cells were examined after 3 days culture in the presence or absence of MA (200 ng/ml) or other treatments. […]

[6] = tested on: human bone marrow stem cells; assay: Engraftment of ex vivo expanded hematopoietic progenitor cells in irradiated rats; parameters: species or system Sprague Dawley rats; conditions: Rat S. Dawley irradiated 450 RAD; n = 3
Excerpt: as §3, §4

[7] = Lethal dose taxol in Sprague-Dawley rats; assay type: in vivo
Protocol: Sprague-Dawley rats were given taxol in large lethal doses, 4.5 mg in one I.P. inoculation. […] Bone marrow suppression can also be a side effect of the clinical use of taxol.^179 As in the radiation experiments, either MA, pMA, MAS1, or various polypeptide controls were given subcutaneously only in two doses 24 and 48 hrs before taxol treatment or were given 3×/week for 4 weeks. […]

[8] = tested on: B16 melanoma and Lewis lung (LL) carcinoma; assay: Metastatic B16 melanoma and Lewis lung carcinoma in C57/BL mice; assay type: in vivo; conditions: MAS1 or MAS2 0.1 ug or 1.0 ug
Protocol: as §2

With “VVCNYRDVRFESIRLPGCPRGVNPVVSYAVALSCQ [MA]” the tumor outcome [1] was “complete abolishment of the tumor in two of three animals; also recorded: Partial regression was observed in one animal”, the tumor outcome [2] was “complete tumor regression; also recorded: partial tumor regression” and the “recovery of peripheral blood cells” value (Acutely bled rats) was “prompt recovery”. The “susceptibility to pro-apoptotic effects” value (B16 melanoma) was “susceptible”, the survival and development ([3]; 300 pmoles to mother for 10 days, then direct subcutaneous inoculation) was “survived, developed normally” and the transgene expression ([3]; rat, in vivo) was “markedly reduced”. The “inhibition of SIVMAC 251 infection (qualitative)” value (SIVMAC 251) was “inhibited”, the CD4 [4] was 2% and the CD14 [4] was 2%. For the same sequence, the CD34 [4] was 38%, the “growth inhibition and apoptosis of primary human tumor cells” value [5] was “inhibited growth and induced apoptosis; also recorded: Rapid induction of apoptosis” and the CD4 [6] was 1%. The CD14 [6] was 1%, the CD34 [6] was 40% and the “survival of pretreated animals” value ([7]; low dose, two doses 24 and 48 hrs before taxol) was “Sixty-percent”. The “survival maintained to day 80” value ([7]; therapy maintained 28 days, high dose (1000 ng)) was about 80%, the “survival maintained to day 80” value ([7]; therapy maintained 28 days, low dose (100 ng)) was “about 60%” and the “survival on day 5” value ([7]; therapy maintained 28 days, low or high dose) was 100%. The “pro-apoptotic effect on neoplastic cells in vivo” value [8] was “potent pro-apoptotic effect”.

Reference: patent US9175077B2, “Nucleic acids encoding biologically active polypeptides derived from a novel early stage pregnancy factor designated maternin (MA)” (NOBEL BIOSCIENCES LLC, priority 1999, dated 2015)
